{
  "source": "patent US6812248B2",
  "about": "“Prevention and treatment of degenerative diseases by glutathione and phase II detoxification enzymes” (John Hopkins University School of Medicine, priority 2000, dated 2004)",
  "key": {"motor neurons [1]": {"tested_on": "motor neurons", "conditions": "earlier use of the culture system as preclinical screen; cited from earlier work"}, "motor neurons [2]": {"tested_on": "motor neurons", "conditions": "spinal cord explant; sulforaphane 0.5, 5, 10 μM for 3 weeks; FIG. 1", "method": "The general experimental procedure of THA-induced cytotoxicity was previously described (Ho T et al., Experimental Neurology, 161, 664-675, 2000), the contents of which are incorporated herein by reference. Rodent spinal cord tissue slices were treated with THA and/or sulforaphane. Sulforaphane was administered at concentrations at 0, 0.5 μM, 5 μM and 10 μM for 3 weeks, changing medium every three days. At the end of the experiment, each tissue slice was fixed and stained, and remaining neurons were counted."}, "glutathione (GSH)": {"tested_on": "glutathione (GSH)", "conditions": "1, 5 or 10 μM for 12 h, 24 h or 48 h; no THA; FIG. 2", "method": "Rat spinal cord slices were similarly prepared and cultured as in the above example but without THA treatment. The tissues were cultured for one or two weeks and then incubated with 1 μM, 5, μM, or 10 μM, of sulphoraphane for 12 h, 24 h or 48 h. The tissue slices were then harvested and sonicated and assayed for total GSH content (Richie J P et al., Clinical Chemistry, 42, 64-70, 1996, the contents of which are incorporated herein by reference)."}, "[3]": {"tested_on": "glutathione transferase (GST)", "method": "(§1) Mouse spinal cord cultures were prepared and cultured according to Rothstein, J D and Kuncl, R W. J. Neural Chem. 65:643-651 (1995). Cultures were treated with sulforaphane for 24 hours at concentrations of 0,1 μm, 5 μm, 10 μm and 20 μm.\n(§2) Mouse spinal cord cultures were prepared and cultured as above. Cultures were treated with sulforaphane for 2 weeks, twice a week, at concentrations of 1 μm, 5 μm and 10 μm."}, "quinone reductase (QR)": {"tested_on": "quinone reductase (QR)", "method": "as §1, §2"}, "SOD-G93 mice": {"tested_on": "SOD-G93 mice", "conditions": "oral daily gavage from weaning; expected result", "from_the_text": "Method: Transgenic animals will be divided into four groups of 10 animals per group. […] The third group will receive N-acetylcysteine alone, and a fourth group will receive vehicle control (CMC). […] Animals will begin treatment at weaning, and continue oral daily gavage of the drugs. Onset of disease will be monitored by alteration on rotorod performance. Animals will be studied twice weekly starting at 1 month of age. A surrogate survival measure will be determined by the ability of the animals to right themselves after being placed on the cage on their backs. If they are unable to right themselves after 30 seconds, they will be considered dead. The survival and rotorod performance of each group of the animal will be compared."}, "brain glutathione": {"tested_on": "brain glutathione", "assay": "Blood-brain barrier permeability / whole brain GSH levels after daily oral gavage", "conditions": "one week, whole brain homogenate, FIG. 5"}, "[4]": {"conditions": "treated 2 weeks, twice a week, at 1, 5, 10 μm, FIG. 4"}, "[5]": {"conditions": "treated 24 hours at 1, 5, 10, 20 μm, FIG. 3"}},
  "note": "Read-outs that look alike come from different tables or passages of the source.",
  "data": [
    {"molecule": "NCC1(CC(=O)O)CCCCC1", "note": "[gabapentin, reference compound]", "values": [
      {"measurement": "Protection against chronic motor neuron degeneration", "setting": "motor neurons [1]", "result": "protective"}
    ]},
    {"molecule": "Nc1nc2ccc(OC(F)(F)F)cc2s1", "note": "[riluzole, reference compound]", "values": [
      {"measurement": "Protection against chronic motor neuron degeneration", "setting": "motor neurons [1]", "result": "protective"}
    ]},
    {"molecule": "insulin growth factor (IGF-1): insulin growth factor, potential neuroprotective agent", "values": [
      {"measurement": "Protection against chronic motor neuron degeneration", "setting": "motor neurons [1]", "result": "protective"}
    ]},
    {"molecule": "C[S+]([O-])CCCCN=C=S", "note": "(stereo not shown) [sulforaphane]", "values": [
      {"measurement": "Prevention of THA-induced motor neuron death", "setting": "motor neurons [2]", "result": "significantly prevented THA-induced motor neuron death"},
      {"measurement": "Rise of GSH level in treated spinal cord tissue", "setting": "glutathione (GSH)", "result": "≤ 160", "unit": "%"},
      {"measurement": "Induction of GST activity", "setting": "[3]; [4]", "result": "induced"},
      {"measurement": "Induction of GST activity", "setting": "[3]; [5]", "result": "induced"},
      {"measurement": "Induction of QR activity", "setting": "quinone reductase (QR); [4]", "result": "induced"},
      {"measurement": "Induction of QR activity", "setting": "quinone reductase (QR); [5]", "result": "induced"},
      {"measurement": "Survival of the animals compared to control", "setting": "SOD-G93 mice", "result": "will improve the survival"},
      {"measurement": "Brain GSH levels", "setting": "brain glutathione", "result": "elevate GSH levels in the brain"}
    ]},
    {"molecule": "brain-derived neurotrophic factor (BDNF): brain-derived neurotrophic factor (protein, UniProt P23560 129-247, looked up, Neurotrophic factor BDNF) Neurotrophic factor BDNF: HSDPARRGELSVCDSISEWVTAADKKTAVDMSGGTVTVLEKVPVSKGQLKQYFYETKCNPMGYTKEGCRGIDKRHWNSQCRTTQSYVRALTMDSKKRIGWRFIRIDTSCVCTLTIKRGR", "values": [
      {"measurement": "Protection against chronic motor neuron degeneration", "setting": "motor neurons [1]", "result": "failed to protect"}
    ]},
    {"molecule": "ciliary neurotrophic factor (CNTF): ciliary neurotrophic factor (protein, UniProt P26441 1-200, looked up) Ciliary neurotrophic factor: MAFTEHSPLTPHRRDLCSRSIWLARKIRSDLTALTESYVKHQGLNKNINLDSADGMPVASTDQWSELTEAERLQENLQAYRTFHVLLARLLEDQQVHFTPTEGDFHQAIHTLLLQVAAFAYQIEELMILLEYKIPRNEADGMPINVGDGGLFEKKLWGLKVLQELSQWTVRSIHDLRFISSHQTGIPARGSHYIANNKKM", "values": [
      {"measurement": "Protection against chronic motor neuron degeneration", "setting": "motor neurons [1]", "result": "failed to protect"}
    ]}
  ]
}
